Data taken from patent US11492361B2, “Compounds useful in HIV therapy” (GlaxoSmithKline Intellectual Property Development Limited, priority 2018, dated 2022).
Where a name gives a salt, the structure may show the parent alone. Read-outs that look alike come from different tables or passages of the source.

What was measured:
[1] = system: NFKB2; assay: NFkB2 gene induction; type: cell-based, human; settings: Homo sapiens, CD4+ T, 24 h, read-out: NFkB2 gene induction EC50 (nM)
Protocol: 5×10^5 normal donor CD4 T cells were treated for 24h with serial dilutions of compounds starting at 1.0 μM at 6 fold, 7 places. Total RNA was isolated using the RNEasy Mini kit (Qiagen) per the manufacturer's instructions. The following TaqMan primer probe sets were sourced from Applied Biosystems: Hs00174517_m1 (NFKB2) and Hs02800695 (HPRT1). TaqMan-based real-time PCR (Fast Virus 1-Step Master Mix, Applied Biosystems) was used to amplify host genes of interest. Gene expression was normalized to HPRT1 and comparative threshold cycle (CT) method (ΔΔCT) was used for relative fold change of gene expression as compared to untreated cells. The data was analyzed by QuantStudio3 Real-Time PCR System.

[2] = system: p100/p52; assay: p100/p52 Western blot (WB) assay; type: cell-based, human; settings: Homo sapiens
Protocol: Cell cultures were set up to evaluate several SMACm compounds. Frozen PBMC cells from healthy donors were thawed and plated in 2 ml deepwell plates at 2×10^6 cells/ml. Serial dilutions of each compound was carried out as a 7 fold 1:6 dilution with the starting final dose of 1000 nM. Cells were then combined with compound and place at 37° for 24 hrs. The following day cells were pelleted and placed at −80 until lysis.
In preparation for cell lysis, the frozen cell pellets and an aliquot of NP40 Cell Lysis Buffer (Invitrogen, Part #FNN0021), as well as an aliquot of 10× Protease Inhibitor Cocktail (Sigma, Part #P-2714) are thawed on ice. Once thawed, the complete lysis buffer is prepared by adding 10% final volume PI cocktail to the NP40 buffer and then adding in sufficient volume of 0.1 M PMSF (Sigma, Part #93482) and 1 M DTT (Sigma, Part #43816) to create a final concentration of 1 mM each in the complete lysis buffer. Cell lysis is then carried out by resuspending each cell pellet in 30 μL per 10^6 cells then incubating on ice for 30 minutes with vigorous vortexing every 10 minutes. The lysed cells are then centrifuged at 13K RPM for 10 minutes at 4° C. in a refrigerated microcentrifuge. The supernatants (lysates) are then transferred into new microcentrifuge tubes and either stored at −80° or utilized immediately for protein concentration and Western blot analysis.
Protein concentration for each lysate is determined using a detergent compatible Bradford assay (Pierce, Part #23246) following the manufacturer's microplate instructions.
Capillary Western analysis were performed using the ProteinSimple Jess System. A total of 1 ug of cell lysate was prepared according to the provided protocol supplied by ProteinSimple. The primary antibody for p100/p52 (Cell, Signaling #3017) is diluted 1:10 for use in the Jess system. The 12-230 kDa Jess Seperation Module capillary cartridges Separation Module (SM-W004) is used in conjunction with the Anti-Rabbit Secondary NIR conjugate (043-819). The Separation module includes prefilled plates that the samples, primary and secondary antibodies, as well as protein normalization reagent and diluents are loaded onto to perform separation and detection. Once the assay has run, the data is then analyzed utilizing the Compass software provided by ProteinSimple.
Alternatively to capillary electrophoresis, traditional immunoblot assays were carried out, 10 μg of cell lysate was loaded per well into 4-20% Tris-Glycine SDS-PAGE gels. Protein from the SDS-PAGE gels were transferred to Turbo Midi PVDF Transfer Packs (BioRad) using the “Mixed MW” protocol for one Midi Format Gel (constant 2.5 A up to 25V, for 7 minutes) of the Trans-Blot Turbo Transfer System (Bio-Rad) with premade Trans-Blot per the manufacturer's instructions. After transfer, PVDF membranes were blocked in 5% bovine serum albumin (BSA) in 1×TBS (BioRad) with 0.1% Tween-20 for 1 hour at room temperature with gentle rocking. Primary antibodies were added and incubated overnight at 4° C. (anti-p100/p52, Cell Signaling Technology #3017, 1:1000; anti-Actin-HRP conjugate, Abcam #49900, 1:30,000). Following primary staining, the membrane washed three times with 1× Tris Buffered Saline (TBS)+0.1% TWEEN® 20 for 10 minutes each wash. After washing, the membrane was incubated in 5% BSA in 1×TBS+0.1% TWEEN® 20 with the appropriate secondary antibody for 2 hours at room temperature. Following secondary stain the membrane was washed twice for 10 minutes with 1×TBS+0.1% TWEEN® 20 followed by a 10-minute wash with 1×TBS. The membrane was then patted dry with filter paper and an image was captured of the undeveloped membrane on the ChemiDoc MP Imaging System using Image Lab software (BioRad). Sufficient ECL reagent (GE Healthcare) was used to cover the membrane and a series of images were taken starting with 0.001 second and doubling to tripling the exposure time until the luminescence from the developed membrane saturated the image. […]

[3] = system: Jurkat HIV-luciferase clones; assay: Jurkat latency reversal assay; type: cell-based; settings: Homo sapiens, Jurkat
Outline: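 Three pooled Jurkat HIV-luciferase clones (C16, I15, N6; 5,000 cells/well, maintained with 500 nM EFV) exposed to 3-fold, 14-point titrations (10 μM to 2.1 pM, 0.5% DMSO) in duplicate for 48 h at 37 °C. Luciferase luminescence read; EC50 and maximal % activation versus vehicle from four-parameter logistic fit.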

[4] = PBMC, 24 h, read-out: p100/p52 Western Blot (WB) EC50 (nM)
[5] = Table 4 summary, read-out: Jurkat EC50

Row | SMILES | EC50 [1] [nM] | EC50 [2, 4] [nM] | EC50 ([3]; 48 h) [nM] | EC50 [3, 5] [nM] | EC50 ([2]; PBMC cells from healthy donors, 24 hrs, read-out: p100/p52 Western Blot (WB) EC50) [nM] | EC50 ([3]; 48 h, Table 4 summary, read-out: Jurkat EC50) [nM]
1 | CN[C@@H](C)C(=O)N[C@H]1CCS[C@H]2CC(C)(C)[C@@H](C(=O)N[C@H](COCC#CC#CCOC[C@@H](NC(=O)[C@H]3N4C(=O)[C@@H](NC(=O)[C@H](C)NC)CCS[C@H]4CC3(C)C)c3ccccc3)c3ccccc3)N2C1=O [compound 33, (4S,4′S,7S,7′S,9aS,9a′S)-N,N′-((1S,1′S)-(hexa-2,4-diyne-1,6-diylbis(oxy))bis(1-phenylethane-2,1-diyl))bis(8,8-dimethyl-4-((S)-2-(methylamino)propanamido)-5-oxooctahydropyrrolo[2,1-b][1,3]thiazepine-7-carboxamide) dihydrochloride] | 46 | 158 | 5.5 | 5.5 |  | 
2 | CN[C@@H](C)C(=O)N[C@H]1CCS[C@H]2CC(C)(C)[C@@H](C(=O)N[C@H](COCCCCCCOC[C@@H](NC(=O)[C@H]3N4C(=O)[C@@H](NC(=O)[C@H](C)NC)CCS[C@H]4CC3(C)C)c3ccccc3)c3ccccc3)N2C1=O [compound 40, (4S,4′S,7S,7′S,9aS,9a′S)-N,N′-((1S,1′S)-(hexane-1,6-diylbis(oxy))bis(1-phenylethane-2,1-diyl))bis(8,8-dimethyl-4-((S)-2-(methylamino)propanamido)-5-oxooctahydropyrrolo[2,1-b][1,3]thiazepine-7-carboxamide) dihydrochloride] | 11 | 1 | 6.1 | 6.1 |  | 
3 | CN[C@@H](C)C(=O)N[C@H]1CCS[C@H]2CC(C)(C)[C@@H](C(=O)N[C@H](COCc3ccc(COC[C@@H](NC(=O)[C@H]4N5C(=O)[C@@H](NC(=O)[C@H](C)NC)CCS[C@H]5CC4(C)C)c4ccccc4)cc3)c3ccccc3)N2C1=O [compound 42, (4S,4′S,7S,7′S,9aS,9a′S)-N,N′-((1S,1′S)-((1,4-phenylenebis(methylene))bis(oxy))bis(1-phenylethane-2,1-diyl))bis(8,8-dimethyl-4-((S)-2-(methylamino)propanamido)-5-oxooctahydropyrrolo[2,1-b][1,3]thiazepine-7-carboxamide) dihydrochloride] | 3.6 | 3.1 | 6.8 | 6.8 |  | 
4 | CN[C@@H](C)C(=O)N[C@H]1CCS[C@H]2CC(C)(C)[C@@H](C(=O)N[C@H]3c4ccccc4C[C@H]3OCCCCCCO[C@@H]3Cc4ccccc4[C@@H]3NC(=O)[C@H]3N4C(=O)[C@@H](NC(=O)[C@H](C)NC)CCS[C@H]4CC3(C)C)N2C1=O [compound 20, (4S,4′S,7S,7′S,9aS,9a′S)-N,N′-((1S,1′S,2R,2′R)-(hexane-1,6-diylbis(oxy))bis(2,3-dihydro-1H-indene-2,1-diyl))bis(8,8-dimethyl-4-((S)-2-(methylamino)propanamido)-5-oxooctahydropyrrolo[2,1-b][1,3]thiazepine-7-carboxamide)] | 75 | 3.1 | 11.9 | 11.9 |  | 
5 | CN[C@@H](C)C(=O)N[C@H]1CCO[C@H]2CC(C)(C)C(C(=O)Nc3ccccc3SSc3ccccc3NC(=O)C3N4C(=O)[C@@H](NC(=O)[C@H](C)NC)CCO[C@H]4CC3(C)C)N2C1=O (stereo partly shown) [Formula F, reference compound] |  |  |  |  | > 1000 | ~1000
6 | CN[C@@H](C)C(=O)N[C@H]1CCS[C@H]2CC(C)(C)[C@@H](C(=O)N[C@H]3c4ccccc4C[C@H]3OCCOCCO[C@@H]3Cc4ccccc4[C@@H]3NC(=O)[C@H]3N4C(=O)[C@@H](NC(=O)[C@H](C)NC)CCS[C@H]4CC3(C)C)N2C1=O [compound 18, (4S,4′S,7S,7′S,9aS,9a′S)-N,N′-((1S,1′S,2R,2′R)-((oxybis(ethane-2,1-diyl))bis(oxy))bis(2,3-dihydro-1H-indene-2,1-diyl))bis(8,8-dimethyl-4-((S)-2-(methylamino)propanamido)-5-oxooctahydropyrrolo[2,1-b][1,3]thiazepine-7-carboxamide) dihydrochloride] |  |  | 22.3 |  |  | 
7 | CN[C@@H](C)C(=O)N[C@H]1CCS[C@H]2CC(C)(C)[C@@H](C(=O)N[C@H]3c4ccccc4C[C@H]3C(=O)NCC#CC#CCNC(=O)[C@@H]3Cc4ccccc4[C@@H]3NC(=O)[C@H]3N4C(=O)[C@@H](NC(=O)[C@H](C)NC)CCS[C@H]4CC3(C)C)N2C1=O [compound 49, (4S,7S,9aS)-N-[(1R,2R)-2-[(6-{[(1R,2R)-1-[(4S,7S,9aS)-8,8-dimethyl-4-[(2S)-2-(methylamino)propanamido]-5-oxo-octahydropyrrolo[2,1-b][1,3]thiazepine-7-amido]-2,3-dihydro-1H-inden-2-yl]formamido}hexa-2,4-diyn-1-yl)carbamoyl]-2,3-dihydro-1H-inden-1-yl]-8,8-dimethyl-4-[(2S)-2-(methylamino)propanamido]-5-oxo-octahydropyrrolo[2,1-b][1,3]thiazepine-7-carboxamide] |  |  | 466 |  |  | 
8 | CN[C@@H](C)C(=O)N[C@H]1CCS[C@H]2CC(C)(C)[C@@H](C(=O)N[C@H]3c4ccccc4C[C@H]3C(=O)NCc3ccc(CNC(=O)[C@@H]4Cc5ccccc5[C@@H]4NC(=O)[C@H]4N5C(=O)[C@@H](NC(=O)[C@H](C)NC)CCS[C@H]5CC4(C)C)cc3)N2C1=O [compound 45, (4S,7S,9aS)-N-[(1R,2R)-2-({[4-({[(1R,2R)-1-[(4S,7S,9aS)-8,8-dimethyl-4-[(2S)-2-(methylamino)propanamido]-5-oxo-octahydropyrrolo[2,1-b][1,3]thiazepine-7-amido]-2,3-dihydro-1H-inden-2-yl]formamido}methyl)phenyl]methyl}carbamoyl)-2,3-dihydro-1H-inden-1-yl]-8,8-dimethyl-4-[(2S)-2-(methylamino)propanamido]-5-oxo-octahydropyrrolo[2,1-b][1,3]thiazepine-7-carboxamide] |  |  | 183 |  |  | 
9 | CN[C@@H](C)C(=S)N[C@H]1CCS[C@H]2CC(C)(C)[C@@H](C(=O)NC3c4ccccc4CC[C@H]3C(=O)N3CCN(C(=O)[C@@H]4CCc5ccccc5C4NC(=O)[C@H]4N5C(=O)[C@@H](NC(=S)[C@H](C)NC)CCS[C@H]5CC4(C)C)CC3)N2C1=O (stereo in doubt) [compound 8, (4S,4′S,7S,7′S,9aS,9a′S)-N,N′-((1R,1′R,2R,2′R)-(piperazine-1,4-dicarbonyl)bis(1,2,3,4-tetrahydronaphthalene-2,1-diyl))bis(8,8-dimethyl-4-((S)-2-(methylamino)propanethioamido)-5-oxooctahydropyrrolo[2,1-b][1,3]thiazepine-7-carboxamide) dihydrochloride] |  |  | 2.4 |  |  | 
